The target in this experiment is T1, Recombinant full length human OGA enzyme (Homo sapiens, UniProt O60502).
T1 construct: Recombinant full length human OGA enzyme was purchased from Origene; purchased Origene
T1 sequence (O60502 1-916): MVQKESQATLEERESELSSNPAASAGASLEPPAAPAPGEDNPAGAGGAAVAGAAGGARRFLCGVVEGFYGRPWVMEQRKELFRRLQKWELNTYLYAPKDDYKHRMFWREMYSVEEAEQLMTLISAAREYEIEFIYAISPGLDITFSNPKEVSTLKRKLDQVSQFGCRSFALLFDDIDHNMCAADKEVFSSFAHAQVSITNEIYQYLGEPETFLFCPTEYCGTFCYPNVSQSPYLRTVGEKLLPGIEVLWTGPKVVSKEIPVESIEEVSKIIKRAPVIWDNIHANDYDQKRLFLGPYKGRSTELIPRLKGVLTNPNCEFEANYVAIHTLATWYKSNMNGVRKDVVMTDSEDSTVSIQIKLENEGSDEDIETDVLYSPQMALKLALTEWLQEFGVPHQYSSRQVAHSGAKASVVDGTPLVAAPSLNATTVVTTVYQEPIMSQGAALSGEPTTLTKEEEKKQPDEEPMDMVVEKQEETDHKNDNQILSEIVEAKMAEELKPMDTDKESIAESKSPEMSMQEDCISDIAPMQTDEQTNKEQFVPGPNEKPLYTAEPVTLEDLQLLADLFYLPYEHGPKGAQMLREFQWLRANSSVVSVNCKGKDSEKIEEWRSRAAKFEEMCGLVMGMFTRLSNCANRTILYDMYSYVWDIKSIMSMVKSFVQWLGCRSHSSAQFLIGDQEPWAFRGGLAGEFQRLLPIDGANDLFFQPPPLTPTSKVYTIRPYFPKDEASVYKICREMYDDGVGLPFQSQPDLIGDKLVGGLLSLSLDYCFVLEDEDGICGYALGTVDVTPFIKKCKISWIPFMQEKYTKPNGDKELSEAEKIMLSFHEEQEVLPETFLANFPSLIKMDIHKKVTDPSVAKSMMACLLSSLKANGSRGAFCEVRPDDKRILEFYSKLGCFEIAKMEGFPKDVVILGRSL
Put plainly: OGA Enzyme Inhibition Biochemical Assay. The conditions noted are these: 1 nM OGA, 100 μM 4-MUGlcNAc (Km), pH 6.4, 90 minutes at room temperature, 10-point dose-response from 20 μM. The method in brief: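 Full-length human OGA at 1 nM with 100 μM 4-MUGlcNAc (Km) in McIlvaine buffer pH 6.4 plus 0.01% BSA, 90 min at room temperature, then glycine pH 10 quench. Fluorescence read at Ex 355/Em 460 nm. 10-point, 4-fold dose-response from 20 μM, 4-parameter variable-slope fit.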

Regarding `CC(=O)Nc1ncc(CN2CCCC(Cc3cccnc3)C2)s1` (stereo not shown) [Example 1-27, N-(5-((3-(pyridin-3-ylmethyl)piperidin-1-yl)methyl)thiazol-2-yl)acetamide], the half-inhibitory concentration (IC50) was 11 nM.
